Values of other authors, collected in US20200276216A1, “INHIBITION OF GLYCOLYSIS WITH 2-DEOXY-D-GLUCOSE AND D-LACTIC ACID DIMER” (priority 2020, published 2020).

Key:
cancer cells = settings: dose dependent, exclusive of its ability to lower pH
[1] = in vivo, po
[2] = in vivo

C[C@@H](O)C(=O)O[C@H](C)C(=O)O [DLAD, D-Lactic Acid Dimer]
selectivity of action in vitro (cancer cells): selective for cancer cells

O=CC[C@@H](O)[C@H](O)[C@H](O)CO [2DG, 2-Dexoxy-D-Glucose]
half-life [1]: 4.5 to 8.2 h
estimated maximum approximate dose before side effects become clinically significant [2]: ~60 mg/kg/day
